Test results from US20050101560A1, “Method of treating an individual with methyl 1-[N6-(3-iodobenzyl)-adenin-9-yl] beta-D-ibofuronamide” (CAN-FITE BIOPHARMA LTD., priority 2003, published 2005).
“And” between values parts separate entries of the source, which are not always exact repeats. Equal values may be shown once. “Also recorded” adds a separate entry of the source.

Legend:
[1] = Water solubility; format: physicochemical
[2] = tested on: various tumour cell types; settings: arresting cell growth at GO/GI phase; Fishman et al, 2000a; cited from earlier work
[3] = Single dose study: plasma pharmacokinetics after a single oral dose; format: in vivo, human; settings: for AUC(0-48): mean (SD)
Experimental: (§1) Two clinical studies were carried out: a single dose study and a repeat dose study. Both studies were parallel-group, double-blind, dose-rising, and placebo-controlled in design.
(§2) In each group, 1 subject received placebo. […] In each group, 2 subjects received placebo.
(§3) Healthy young men, aged 18-45 years.
(§4) In the repeated dose study, an aqueous 0.5% methylcellulose suspension (Methocel A4M Premium, The Dow Chemical Company) was used. In both studies, the study medication was taken orally as a drink, followed by 50 ml of tap water.
(§5) The following procedures were done: • Safety assesment: laboratory assessments (routine biochemistry and urinalysis), physical examination, 12-lead ECO, ambulatory ECG, pulmonary function testing (FEV1), vital signs (semi-recumbent in the single dose study; semi-recumbent and standing in the repeat dose study).
(§6) Plasma samples were assayed for IB-MECA using LC/MS/MS. The lower limit of quantification (LLOQ) was 0.1 ng/mL. Intra-assay coefficients of variation (CV) were <5.0% and inter-assay CVs were <9.4%.
(§7) Maximum concentration (Cmax) and time to maximum concentration (tmax) were observed values. Other pharmacokinetic parameters (half-life, to AUC; and clearance, CL/F) were calculated by non-compartmental methods using WinNonlin® software (version 3.0, Pharsight, Mountain View, Calif., US). Accumulation indices of Cmax and AUC were calculated as ratio of values at steady state (Day 7) to the values on Day 1.

[4] = Single dose study: safety and tolerability; format: in vivo, human; settings: for safety and tolerability: single (daily) oral dose up to 5 mg
Experimental: as §1, §2, §3, §4, §5
(§8) Data from all subjects who received IB-MECA were included in the analysis of safety and tolerability (adverse events and laboratory safety variables). Numerical data and parameters were summarised using means or medians, and other descriptive statistics, according to the type and distribution of the data.

[5] = tested on: syngeneic (melanoma, colon carcinoma) and xenograft (colon and prostate carcinoma) mouse models; settings: cited from earlier work
[6] = Repeat dose study: safety and tolerability; format: in vivo, human; settings: for safety and tolerability: twice daily (12-hourly) oral dose up to 4 mg
Experimental: as §1, §2, §3, §4, §5, §8

[7] = Repeat dose study: plasma pharmacokinetics on Days 1 and 7 of 12-hourly oral dosing; format: in vivo, human
Experimental: as §1, §2, §3, §4, §5, §6, §7

[8] = tested on: neutrophils; settings: cited from earlier work
[9] = 2 mg oral every 12 h, Day 1, mean (SD), n = 5
[10] = 2 mg oral every 12 h, Day 7, mean (SD), n = 5
[11] = 3 mg oral every 12 h, Day 1, mean (SD), n = 5
[12] = 3 mg oral every 12 h, Day 7, mean (SD), n = 5
[13] = 4 mg oral every 12 h, Day 1, mean (SD), n = 5
[14] = 4 mg oral every 12 h, Day 7, mean (SD), n = 5
[15] = 5 mg oral every 12 h, Day 1, mean (SD), n = 5
[16] = 5 mg oral every 12 h, Day 7, mean (SD), n = 5

CNC(=O)[C@H]1O[C@@H](n2cnc3c(NCc4cccc(I)c4)ncnc32)[C@H](O)[C@@H]1O [IB-MECA, methyl 1-[N6-(3-iodobenzyl)-adenin-9-yl]-β-D-ibofuronamide]
water solubility [1]: not water soluble
effect on tumour cell growth [2]: cytostatic effect
plasma level (Cmax) at safe doses ([3]; single daily dose of 5 mg and twice daily dose of 4 mg): < 80 ng/mL
AUC(0-48) ([3]; single oral dose 1 mg, n = 4): 220.7 ng·h/mL
tmax ([3]; single oral dose 1 mg, median (range), n = 4): 1 (1-2) h
AUC(0-48) ([3]; single oral dose 5 mg, n = 4): 872.3 ng·h/mL
tmax ([3]; single oral dose 5 mg, median (range), n = 4): 1 (1-2) h
AUC(0-48) ([3]; single oral dose 10 mg, n = 4): 1780.0 ng·h/mL
tmax ([3]; single oral dose 10 mg, median (range), n = 4): 1 (1-2) h
inter-subject variability ([3]; single oral doses): low
pharmacokinetics (linearity) ([3]; single oral doses 1, 5, 10 mg): linear
tmax ([3]; single oral doses 1, 5, 10 mg, overall range): 1 to 2 h
apparent plasma clearance (CL/F) ([3]; single oral doses, independent of dose): 47 L/h
blood level correlated with side effects ([4]; healthy adults, oral dosing): exceeding 160 nM and > 80 ng/ml
safety and tolerability [4]: safe and well tolerated
safety and tolerability ([4]; listed as 13-MCA): well tolerated
side effects ([4]; single daily oral dose 10 mg): some cardiovascular-related side effects
change in resting heart rate ([4]; single dose 5 mg, four subjects): small increase
adverse events within 12 h of dosing (number) ([4]; single dose of 10 mg): 8
safety tests of blood and urine ([4]; single dose study): no clinically significant changes
change in blood pressure ([4]; single dose study, not measured standing): In no subject was there a significant change
colon carcinoma growth ([5]; oral administration, nude mice): inhibits colon carcinoma growth
development of tumours ([5]; orally administered, syngeneic and xenograft mouse models): inhibits the development of tumours
adverse events ([6]; 5 mg oral twice daily): some cardiovascular-related adverse events; also recorded: headache and drowsiness were most common
safety tests of blood and urine ([6]; repeat dose study): no clinically significant changes
heart rate ([6]; repeat dose study, Day 1): dose-related increase
heart rate effect ([6]; repeat dose study, Day 7 versus Day 1): clearly smaller
adverse events within 12 h of dosing (number) ([6]; repeated doses of 5 mg 12-hourly): 13
adverse events within 12 h of dosing (number) ([6]; repeated doses of up to 4 mg 12-hourly): 2
safety and tolerability [6]: safe and well tolerated
safety and tolerability ([6]; listed as 13-MCA): well tolerated
maximum tolerated dose ([6]; twice-daily therapeutic regimen): 4 mg
AUC(0-12) [7, 9]: 155.2 (39.1) ng · h/mL
AUC(inf) [7, 9]: 207.4 (52.0) ng · h/mL
tmax ([7]; 2 mg oral every 12 h, Day 1, median (range), n = 5): 2 (1-4) h
AUC(0-12) [7, 10]: 242.4 (41.4) ng · h/mL
AUC(0-24) [7, 10]: 346.3 (64.0) ng · h/mL
tmax ([7]; 2 mg oral every 12 h, Day 7, median (range), n = 5): 2 (1-2) h
AUC(0-12) [7, 11]: 304.5 (19.5) ng · h/mL
AUC(inf) [7, 11]: 423.5 (27.5) ng · h/mL
tmax ([7]; 3 mg oral every 12 h, Day 1, median (range), n = 5): 2 (1-2) h
AUC(0-12) [7, 12]: 341.6 (38.1) ng · h/mL
AUC(0-24) [7, 12]: 512.1 (74.1) ng · h/mL
tmax ([7]; 3 mg oral every 12 h, Day 7, median (range), n = 5): 1 (1-2) h
AUC(0-12) [7, 13]: 297.0 (57.2) ng · h/mL
AUC(inf) [7, 13]: 400.2 (85.7) ng · h/mL
tmax ([7]; 4 mg oral every 12 h, Day 1, median (range), n = 5): 2 (1-2) h
AUC(0-12) [7, 14]: 458.3 (54.8) ng · h/mL
AUC(0-24) [7, 14]: 640.3 (73.7) ng · h/mL
tmax ([7]; 4 mg oral every 12 h, Day 7, median (range), n = 5): 1 (1-2) h
AUC(0-12) [7, 15]: 461.6 (157.4) ng · h/mL
AUC(inf) [7, 15]: 596.1 (196.6) ng · h/mL
tmax ([7]; 5 mg oral every 12 h, Day 1, median (range), n = 5): 2 (1-2) h
AUC(0-12) [7, 16]: 601.0 (163.6) ng · h/mL
AUC(0-24) [7, 16]: 818.4 (214.0) ng · h/mL
tmax ([7]; 5 mg oral every 12 h, Day 7, median (range), n = 5): 2 (2-2) h
dose proportionality of plasma concentrations ([7]; Day 1 and steady state (Day 7)): dose proportional
tmax ([7]; repeated oral doses 2-5 mg every 12 h, overall): 1 to 2 h
time at which steady state was reached ([7]; repeated oral doses every 12 h): ≤ 3 days
change of pharmacokinetics after repeated dosing ([7]; repeated oral doses every 12 h for 7 days): did not change
Half-life at steady state ([7]; repeated oral doses, Day 7, independent of dose): 9 to 10 h
apparent plasma clearance (CL/F) ([7]; repeated oral doses, independent of dose): 5 to 10 L/h
myelotoxicity ([8]; administered with chemotherapy): protects against myelotoxicity
neutrophil recovery ([8]; oral administration, after cytotoxic drug therapy): stimulates neutrophil recovery
production of neutrophils ([8]; oral, mice, via an increase in G-CSF): stimulates the production of neutrophils
